± gives the uncertainty stated by the source.
Experiment: xn = mol fraction of the nth substance listed
Conditions: 101 kPa

Work on `[Al+3].[Cl-].[Cl-].[Cl-]` + CCCC(N)=O yielded a viscosity (313 K, x1 = 0.5) of 28.41 ± 0.64 mPa·s, a viscosity (313 K, x1 = 0.52) of 23.88 ± 0.54 mPa·s and a viscosity (313 K, x1 = 0.57) of 23.18 ± 0.52 mPa·s. The viscosity (313 K, x1 = 0.6) was 24.75 ± 0.56 mPa·s, the viscosity (313 K, x1 = 0.63) was 27.31 ± 0.61 mPa·s and the viscosity (323 K, x1 = 0.5) was 20.42 ± 0.46 mPa·s. The viscosity (323 K, x1 = 0.52) was 17.69 ± 0.4 mPa·s, the viscosity (323 K, x1 = 0.57) was 17.62 ± 0.39 mPa·s and the viscosity (323 K, x1 = 0.6) was 17.72 ± 0.4 mPa·s. It also gave a viscosity (323 K, x1 = 0.63) of 19.85 ± 0.45 mPa·s.
`CC(=O)c1ccccc1` + CC(C)(C)O showed a viscosity (298.15 K, x2 = 0.1188) of 2.081 ± 0.015 mPa·s, a viscosity (298.15 K, x2 = 0.2314) of 2.456 ± 0.017 mPa·s and a viscosity (298.15 K, x2 = 0.3395) of 2.8 ± 0.019 mPa·s. For the same compound, the viscosity (298.15 K, x2 = 0.4286) was 3.08 ± 0.02 mPa·s, the viscosity (298.15 K, x2 = 0.545) was 3.42 ± 0.022 mPa·s and the viscosity (298.15 K, x2 = 0.6429) was 3.651 ± 0.023 mPa·s. The viscosity (298.15 K, x2 = 0.7373) was 3.856 ± 0.023 mPa·s, the viscosity (298.15 K, x2 = 0.8283) was 4.034 ± 0.024 mPa·s and the viscosity (298.15 K, x2 = 0.9142) was 4.208 ± 0.025 mPa·s. For the same compound, the viscosity (303.15 K, x2 = 0.1188) was 1.794 ± 0.013 mPa·s, the viscosity (303.15 K, x2 = 0.2314) was 2.055 ± 0.015 mPa·s and the viscosity (303.15 K, x2 = 0.3395) was 2.284 ± 0.016 mPa·s. For the same compound, the viscosity (303.15 K, x2 = 0.4286) was 2.473 ± 0.017 mPa·s, the viscosity (303.15 K, x2 = 0.545) was 2.712 ± 0.018 mPa·s and the viscosity (303.15 K, x2 = 0.6429) was 2.874 ± 0.018 mPa·s. For the same compound, the viscosity (303.15 K, x2 = 0.7373) was 3.004 ± 0.018 mPa·s, the viscosity (303.15 K, x2 = 0.8283) was 3.127 ± 0.019 mPa·s and the viscosity (303.15 K, x2 = 0.9142) was 3.247 ± 0.019 mPa·s. It also gave a viscosity (308.15 K, x2 = 0.1188) of 1.573 ± 0.012 mPa·s, a viscosity (308.15 K, x2 = 0.2314) of 1.743 ± 0.013 mPa·s and a viscosity (308.15 K, x2 = 0.3395) of 1.895 ± 0.013 mPa·s. It also gave a viscosity (308.15 K, x2 = 0.4286) of 2.023 ± 0.014 mPa·s, a viscosity (308.15 K, x2 = 0.545) of 2.185 ± 0.014 mPa·s and a viscosity (308.15 K, x2 = 0.6429) of 2.29 ± 0.015 mPa·s. It also gave a viscosity (308.15 K, x2 = 0.7373) of 2.378 ± 0.015 mPa·s, a viscosity (308.15 K, x2 = 0.8283) of 2.468 ± 0.015 mPa·s and a viscosity (308.15 K, x2 = 0.9142) of 2.549 ± 0.015 mPa·s.
Work on `CCCCCCCCC` + CC1CCCCC1 yielded a viscosity (293.15 K, x2 = 0.0426) of 0.7162 ± 0.006 mPa·s, a viscosity (293.15 K, x2 = 0.1496) of 0.7103 ± 0.0062 mPa·s and a viscosity (293.15 K, x2 = 0.2805) of 0.7065 ± 0.0065 mPa·s. The viscosity (293.15 K, x2 = 0.3606) was 0.7056 ± 0.0067 mPa·s, the viscosity (293.15 K, x2 = 0.4418) was 0.707 ± 0.0069 mPa·s and the viscosity (293.15 K, x2 = 0.5953) was 0.7117 ± 0.0073 mPa·s. The viscosity (293.15 K, x2 = 0.6794) was 0.7158 ± 0.0076 mPa·s, the viscosity (293.15 K, x2 = 0.7579) was 0.7196 ± 0.0079 mPa·s and the viscosity (293.15 K, x2 = 0.8388) was 0.7243 ± 0.0082 mPa·s. It also gave a viscosity (293.15 K, x2 = 0.9078) of 0.7296 ± 0.0084 mPa·s, a viscosity (298.15 K, x2 = 0.0426) of 0.6637 ± 0.0056 mPa·s and a viscosity (298.15 K, x2 = 0.1052) of 0.664 ± 0.013 mPa·s. For the same compound, the viscosity (298.15 K, x2 = 0.1496) was 0.6606 ± 0.0058 mPa·s, the viscosity (298.15 K, x2 = 0.198) was 0.66 ± 0.013 mPa·s and the viscosity (298.15 K, x2 = 0.2805) was 0.6594 ± 0.0061 mPa·s. It also gave a viscosity (298.15 K, x2 = 0.299) of 0.658 ± 0.013 mPa·s, a viscosity (298.15 K, x2 = 0.3606) of 0.66 ± 0.0063 mPa·s and a viscosity (298.15 K, x2 = 0.4018) of 0.659 ± 0.012 mPa·s. It also gave a viscosity (298.15 K, x2 = 0.4418) of 0.6607 ± 0.0065 mPa·s, a viscosity (298.15 K, x2 = 0.4978) of 0.659 ± 0.012 mPa·s and a viscosity (298.15 K, x2 = 0.5953) of 0.6639 ± 0.0069 mPa·s. It also gave a viscosity (298.15 K, x2 = 0.5982) of 0.661 ± 0.012 mPa·s, a viscosity (298.15 K, x2 = 0.6794) of 0.6669 ± 0.0072 mPa·s and a viscosity (298.15 K, x2 = 0.6991) of 0.662 ± 0.012 mPa·s. The viscosity (298.15 K, x2 = 0.7579) was 0.6709 ± 0.0074 mPa·s, the viscosity (298.15 K, x2 = 0.7995) was 0.665 ± 0.012 mPa·s and the viscosity (298.15 K, x2 = 0.8388) was 0.6757 ± 0.0077 mPa·s. It also gave a viscosity (298.15 K, x2 = 0.9012) of 0.671 ± 0.012 mPa·s, a viscosity (298.15 K, x2 = 0.9078) of 0.6788 ± 0.0079 mPa·s and a viscosity (303.15 K, x2 = 0.0426) of 0.6214 ± 0.0054 mPa·s. The viscosity (303.15 K, x2 = 0.1052) was 0.625 ± 0.012 mPa·s, the viscosity (303.15 K, x2 = 0.1496) was 0.6176 ± 0.0055 mPa·s and the viscosity (303.15 K, x2 = 0.198) was 0.614 ± 0.012 mPa·s. For the same compound, the viscosity (303.15 K, x2 = 0.2805) was 0.6151 ± 0.0058 mPa·s, the viscosity (303.15 K, x2 = 0.299) was 0.616 ± 0.012 mPa·s and the viscosity (303.15 K, x2 = 0.3606) was 0.6148 ± 0.006 mPa·s. It also gave a viscosity (303.15 K, x2 = 0.4018) of 0.616 ± 0.012 mPa·s, a viscosity (303.15 K, x2 = 0.4418) of 0.6168 ± 0.0062 mPa·s and a viscosity (303.15 K, x2 = 0.4978) of 0.617 ± 0.012 mPa·s. It also gave a viscosity (303.15 K, x2 = 0.5953) of 0.6225 ± 0.0066 mPa·s, a viscosity (303.15 K, x2 = 0.5982) of 0.62 ± 0.012 mPa·s and a viscosity (303.15 K, x2 = 0.6794) of 0.6292 ± 0.0068 mPa·s. The viscosity (303.15 K, x2 = 0.6991) was 0.618 ± 0.011 mPa·s, the viscosity (303.15 K, x2 = 0.7579) was 0.6339 ± 0.0071 mPa·s and the viscosity (303.15 K, x2 = 0.7995) was 0.62 ± 0.011 mPa·s. For the same compound, the viscosity (303.15 K, x2 = 0.8388) was 0.6383 ± 0.0073 mPa·s, the viscosity (303.15 K, x2 = 0.9012) was 0.626 ± 0.011 mPa·s and the viscosity (303.15 K, x2 = 0.9078) was 0.6428 ± 0.0075 mPa·s. For the same compound, the viscosity (308.15 K, x2 = 0.1052) was 0.585 ± 0.012 mPa·s, the viscosity (308.15 K, x2 = 0.198) was 0.58 ± 0.011 mPa·s and the viscosity (308.15 K, x2 = 0.299) was 0.578 ± 0.011 mPa·s. It also gave a viscosity (308.15 K, x2 = 0.4018) of 0.577 ± 0.011 mPa·s, a viscosity (308.15 K, x2 = 0.4978) of 0.577 ± 0.011 mPa·s and a viscosity (308.15 K, x2 = 0.5982) of 0.578 ± 0.011 mPa·s. The viscosity (308.15 K, x2 = 0.6991) was 0.58 ± 0.011 mPa·s, the viscosity (308.15 K, x2 = 0.7995) was 0.582 ± 0.011 mPa·s and the viscosity (308.15 K, x2 = 0.9012) was 0.587 ± 0.011 mPa·s.

Reference: the CheMixHub viscosity set
